Here are results for 1 compound from publication PMC3557921 (Journal of Medicinal Chemistry, 2012).

In this assay the target is T1, β-catenin (armadillo-repeat region of human β-catenin) (Homo sapiens, UniProt P35222).
T1 sequence (P35222 134-671 limits assumed): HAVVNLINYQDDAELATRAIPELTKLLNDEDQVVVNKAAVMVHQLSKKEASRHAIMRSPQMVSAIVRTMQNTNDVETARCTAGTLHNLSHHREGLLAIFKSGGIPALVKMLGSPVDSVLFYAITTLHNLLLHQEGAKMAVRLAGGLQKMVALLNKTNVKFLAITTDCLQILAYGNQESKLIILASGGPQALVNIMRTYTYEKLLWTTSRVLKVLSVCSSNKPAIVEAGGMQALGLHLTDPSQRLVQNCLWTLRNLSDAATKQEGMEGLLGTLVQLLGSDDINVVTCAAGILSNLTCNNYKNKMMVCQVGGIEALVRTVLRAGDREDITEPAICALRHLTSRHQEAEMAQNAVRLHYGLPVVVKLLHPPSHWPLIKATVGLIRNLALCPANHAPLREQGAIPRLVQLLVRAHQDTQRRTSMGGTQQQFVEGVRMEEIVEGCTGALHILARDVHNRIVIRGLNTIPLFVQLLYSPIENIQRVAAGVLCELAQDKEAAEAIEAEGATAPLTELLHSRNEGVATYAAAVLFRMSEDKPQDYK
Nature of the assay: 1D 1H STD-NMR. Format: binding. The following applies: 30 μM protein, 1 mM ligand; 100 mM Tris, 150 mM NaCl, 2 mM DTT, pH 7.4, 25 °C.

Each structure is given as a SMILES string.

With `O=C1OC2(c3ccccc31)c1cc(Br)c(O)c(Br)c1Oc1c2cc(Br)c(O)c1Br` [eosin Y], the “1D 1H STD-NMR” value was “predicted ligands fluorescein and eosin Y bind to the protein”.
